How the values were obtained:
C-CBL (residues 46-435) = target: T1, C-CBL (residues 46-435) (Homo sapiens, UniProt P22681); test: Ligand Displacement Assay (LDA), HTRF competitive binding against BODIPY-labeled fluorescent tracer, C-CBL; settings: geometric mean of the number of tests, read-out: C-CBL Ki (nM) GMean
T1 construct: Purified CBL-B (residues 36-427) and C-CBL (residues 46-435) proteins from baculovirus-infected insect cells; made in house; host or cells: baculovirus-infected insect cells
T1 sequence (P22681 46-435): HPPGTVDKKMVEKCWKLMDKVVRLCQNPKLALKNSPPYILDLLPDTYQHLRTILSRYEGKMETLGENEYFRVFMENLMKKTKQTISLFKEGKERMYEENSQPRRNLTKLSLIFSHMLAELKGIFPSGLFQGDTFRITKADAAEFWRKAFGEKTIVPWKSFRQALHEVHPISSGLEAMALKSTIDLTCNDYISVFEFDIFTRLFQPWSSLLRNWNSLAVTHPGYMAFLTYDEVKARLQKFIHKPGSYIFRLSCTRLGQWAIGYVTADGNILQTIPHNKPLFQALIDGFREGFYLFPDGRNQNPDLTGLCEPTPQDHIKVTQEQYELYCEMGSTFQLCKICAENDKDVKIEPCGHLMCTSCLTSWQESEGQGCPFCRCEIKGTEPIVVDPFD
Procedure, shortened: (§1)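 Insect-cell (baculovirus) protein, N-term AviTag biotinylated via BirA, captured by SA-Tb; BODIPY tracer, KD measured per protein. 3-fold serial dilutions, duplicate, […], 2% DMSO final. Ki (nM) = geomean of runs.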

WT CBL-B (36-427) = target: T2, WT CBL-B (36-427) (Homo sapiens, UniProt Q13191); test: Surface Plasmon Resonance (SPR) assay, binding affinity and kinetics, CBL-B; settings: SPR at 10° C., biotinylated WT CBL-B (36-427) on streptavidin chip; geometric mean; read-out: CBL-B SPR Kd (nM) GMean
T2 construct: N-terminal biotinylated WT CBL-B (36-427) and C-CBL (46-435) were captured on a streptavidin (SA) coated sensor chip
Description: (§2) Surface Plasmon Resonance (SPR) Assay
(§3) The purpose of the SPR assay is to evaluate the binding affinity and kinetics of the compound of disclosure binding to CBL-B and C-CBL.
(§4) The binding affinity and kinetics of compound binding to CBL-B and C-CBL were measured by Surface Plasmon Resonance (SPR) using either Biacore S200, 8K or 8K+ (Cytiva, Marlborough, MA) instruments. N-terminal biotinylated WT CBL-B (36-427) and C-CBL (46-435) were captured on a streptavidin (SA) coated sensor chip to achieve approximately 5000 to 6000 RUs of surface density. Un-functionalized SA surfaces with no immobilized protein served as reference for binding kinetic analysis. All the samples were prepared in buffer consisting of 10 mM HEPES, 150 mM NaCl, 0.05% Tween-20, 5% glycerol, […], 2% DMSO, pH 7.2. The same buffer was used as the running buffer during the experiments. Compound binding kinetics were measured in either multi-cycle or single-cycle kinetic format.
(§5) Multi-cycle kinetic analysis (MCK): A two-fold, 10-point serial dilution of test compounds was set-up in a 96-well microplate (Greiner; Cat #650101) with a top concentration of either 10 μM or 100 μM. Binding kinetics was measured at 10° C. by injecting serial dilution of compounds onto both reference and CBL immobilized channels at a flow rate of 100 μL/min and association time of 90 seconds. Compound dissociation was monitored for >400 seconds during each cycle. No additional regeneration was used. DMSO calibration curve was obtained before and after compound analysis by injecting 0-4% of DMSO in assay buffer. A suitable compound with known affinity and kinetics was tested once in every experiment as a positive control to assess activity of the captured proteins on the surface.
(§6) Single-cycle kinetic analysis (SCK): A 3-fold, 6-point serial dilution of compounds was set-up in a deep 96-well microplate (Greiner Bio; Cat #780201) with the highest concentration of 1 μM (concentration range: […]). Binding kinetics was measured at 10° C. by injecting serial dilutions of compounds in increasing order onto reference as well as CBL immobilized channels at a flow rate of 100 μL/min and association time of 120 seconds. Compound dissociation was monitored for >5400 seconds. Two buffer blanks were also run in a single-cycle kinetics format before the compound run for double referencing. No additional regeneration was used. DMSO calibration curve was obtained before and after compound analysis by injecting 0-4% of DMSO in the assay buffer. A suitable compound with known affinity and kinetics was tested once in every experiment as a positive control to assess activity of the captured proteins on the surface.

C-CBL (46-435) = target: T3, C-CBL (46-435) (Homo sapiens, UniProt P22681); test: Surface Plasmon Resonance (SPR) assay, binding affinity and kinetics, C-CBL; settings: SPR at 10° C., biotinylated C-CBL (46-435) on streptavidin chip; geometric mean; read-out: C-CBL SPR Kd (nM) GMean
T3 construct: N-terminal biotinylated WT CBL-B (36-427) and C-CBL (46-435) were captured on a streptavidin (SA) coated sensor chip
T3 sequence (P22681 46-435): T1 sequence (P22681 46-435)
Description: as §2, §3, §4, §5, §6

CBL-B (residues 36-427) = target: T4, CBL-B (residues 36-427) (Homo sapiens, UniProt Q13191); test: Ligand Displacement Assay (LDA), HTRF competitive binding against BODIPY-labeled fluorescent tracer, CBL-B; settings: geometric mean of the number of tests, read-out: CBL-B Ki (nM) GMean
T4 construct: Purified CBL-B (residues 36-427) and C-CBL (residues 46-435) proteins from baculovirus-infected insect cells; made in house; host or cells: baculovirus-infected insect cells
Procedure, shortened: as §1

Compound | Ki (C-CBL (residues 46-435)) | Kd (WT CBL-B (36-427)) | Kd (C-CBL (46-435)) | Ki (CBL-B (residues 36-427))
Cn1cnnc1CC1(c2cccc(-c3n[nH]c4c(CN5CC(F)C5)nc(C(F)(F)F)cc34)c2)COC1 [Example C65, 7-[(3-fluoroazetidin-1-yl)methyl]-3-(3-{3-[(4-methyl-4H-1,2,4-triazol-3-yl)methyl]oxetan-3-yl}phenyl)-5-(trifluoromethyl)-1H-pyrazolo[3,4-c]pyridine] | 126 nM | 4.9 nM | 127 nM | 21.8 nM
CNCc1nc(C(F)(F)F)cc2c(-c3cccc(C4(Cc5nncn5C)COC4)c3)n[nH]c12 [Example C52, N-methyl-1-[3-(3-{3-[(4-methyl-4H-1,2,4-triazol-3-yl)methyl]oxetan-3-yl}phenyl)-5-(trifluoromethyl)-1H-pyrazolo[3,4-c]pyridin-7-yl]methanamine] | 134 nM | 9.3 nM | 124 nM | 32.9 nM
C[C@H]1CN(Cc2nc(C(F)(F)F)cc3c(-c4cccc(C5(Cc6nncn6C)COC5)c4)n[nH]c23)CCO1 [Example C58, 7-{[(2S)-2-methylmorpholin-4-yl]methyl}-3-(3-{3-[(4-methyl-4H-1,2,4-triazol-3-yl)methyl]oxetan-3-yl}phenyl)-5-(trifluoromethyl)-1H-pyrazolo[3,4-c]pyridine] | 82.4 nM | 5.8 nM | 54.1 nM | 14.8 nM
CN(C)Cc1nc(C(F)(F)F)cc2c(-c3cccc([C@H](c4nncn4C)C4CCC4)c3)n[nH]c12 [Example D82] | 258 nM | 8.7 nM | 213 nM | 32.5 nM
CNc1nc(C(F)(F)F)cc2c(-c3cccc(C4(Cc5nncn5C)COC4)c3)n[nH]c12 [Example J8, N-methyl-3-(3-{3-[(4-methyl-4H-1,2,4-triazol-3-yl)methyl]oxetan-3-yl}phenyl)-5-(trifluoromethyl)-1H-pyrazolo[3,4-c]pyridin-7-amine] | 251 nM | 16.1 nM | 136 nM | 69.3 nM
C[C@@H]1CN([C@@H](C)c2nc(C(F)(F)F)cc3c(-c4cccc(C5(Cc6nncn6C)COC5)c4)n[nH]c23)CCO1 (single isomer, unassigned) [Example D49] | 104 nM | 5.9 nM | 82 nM | 17.8 nM
CCNC(C)c1nc(C(F)(F)F)cc2c(-c3cccc([C@H](c4nncn4C)C4CCC4)c3)n[nH]c12 (single isomer, unassigned) [Example C90] | 93.3 nM | 5.1 nM | 169 nM | 9.4 nM
Cn1cnnc1[C@@H](c1cccc(-c2n[nH]c3c(CN[C@H]4CC[C@@H](O)C4)nc(C(F)(F)F)cc23)c1)C1CCC1 [Example D87] | 112 nM | 4.8 nM | 128 nM | 12.2 nM
C[C@H](c1nc(C(F)(F)F)cc2c(-c3cccc(C4(Cc5nncn5C)COC4)c3)n[nH]c12)N1CC(F)(F)C1 (single isomer, unassigned) [Example D46] | 250 nM | 12.2 nM | 184 nM | 46.5 nM
C[C@@H](N)c1nc(C(F)(F)F)cc2c(-c3cccc([C@H](c4nncn4C)C4CCC4)c3)n[nH]c12 [Example K13, (1R)-1-[3-{3-[(R)-cyclobutyl(4-methyl-4H-1,2,4-triazol-3-yl)methyl]phenyl}-5-(trifluoromethyl)-1H-pyrazolo[3,4-c]pyridin-7-yl]ethan-1-amine] | 215 nM | 12.1 nM | 285 nM | 27 nM
C[C@H](c1nc(C(F)(F)F)cc2c(-c3cccc(C4(Cc5nncn5C)COC4)c3)n[nH]c12)N1CCNC(=O)C1 (single isomer, unassigned) [Example D52] | 118 nM | 10.1 nM | 79.1 nM | 31.9 nM
Cn1cnnc1CC1(c2cccc(-c3n[nH]c4ccc(Cl)cc34)c2)COC1 [Example B7, 5-chloro-3-(3-{3-[(4-methyl-4H-1,2,4-triazol-3-yl)methyl]oxetan-3-yl}phenyl)-1H-indazole] | 150 nM | 7.2 nM | 108 nM | 25.1 nM
CN1CC[C@@H](Oc2nc(C(F)(F)F)cc3c(-c4cccc([C@H](c5nncn5C)C5CCC5)c4)n[nH]c23)C1 [Example J4, 3-{3-[(R)-cyclobutyl(4-methyl-4H-1,2,4-triazol-3-yl)methyl]phenyl}-7-{[(3R)-1-methylpyrrolidin-3-yl]oxy}-5-(trifluoromethyl)-1H-pyrazolo[3,4-c]pyridine] | 83.6 nM | 3.7 nM | 145 nM | 9.2 nM
Cc1cc2c(-c3cccc([C@H](c4nncn4C)C4CCC4)c3)n[nH]c2cn1 [Example A6, 3-{3-[(R)-cyclobutyl(4-methyl-4H-1,2,4-triazol-3-yl)methyl]phenyl}-5-methyl-1H-pyrazolo[3,4-c]pyridine] | 525 nM | 21.4 nM | 882 nM | 51.5 nM
Cn1cnnc1[C@@H](c1cccc(-c2n[nH]c3c(CN4CC(F)(F)C4)nc(C(F)(F)F)cc23)c1)C1CCC1 [Example C115, 3-{3-[(R)-cyclobutyl(4-methyl-4H-1,2,4-triazol-3-yl)methyl]phenyl}-7-[(3,3-difluoroazetidin-1-yl)methyl]-5-(trifluoromethyl)-1H-pyrazolo[3,4-c]pyridine] | 1020 nM | 9.2 nM | 195 nM | 73.8 nM
CN1CCC(Oc2nc(C(F)(F)F)cc3c(-c4cccc(C5(Cc6nncn6C)COC5)c4)n[nH]c23)C1 (stereo in doubt) [Example J2, 7-{[(3S)-1-methylpyrrolidin-3-yl]oxy}-3-(3-{3-[(4-methyl-4H-1,2,4-triazol-3-yl)methyl]oxetan-3-yl}phenyl)-5-(trifluoromethyl)-1H-pyrazolo[3,4-c]pyridine] | 76.6 nM | 4.8 nM | 37.6 nM | 19.1 nM
CCNCc1nc(C(F)(F)F)cc2c(-c3cccc([C@H](c4nncn4C)C4CCC4)c3)n[nH]c12 [Example D81] | 191 nM | 5.6 nM | 206 nM | 25.7 nM
Cn1cnnc1[C@@H](c1cccc(-c2n[nH]c3c(CN4CC[C@H](F)C4)nc(C(F)(F)F)cc23)c1)C1CCC1 [Example C110, 3-{3-[(R)-cyclobutyl(4-methyl-4H-1,2,4-triazol-3-yl)methyl]phenyl}-7-{[(3S)-3-fluoropyrrolidin-1-yl]methyl}-5-(trifluoromethyl)-1H-pyrazolo[3,4-c]pyridine] | 464 nM | 6.4 nM | 300 nM | 50 nM
Cn1cnnc1[C@@H](c1cccc(-c2n[nH]c3c(CN4C[C@H](O)[C@@H](O)C4)nc(C(F)(F)F)cc23)c1)C1CCC1 [Example C76, (3S,4S)-1-{[3-{3-[(R)-cyclobutyl(4-methyl-4H-1,2,4-triazol-3-yl)methyl]phenyl}-5-(trifluoromethyl)-1H-pyrazolo[3,4-c]pyridin-7-yl]methyl}pyrrolidine-3,4-diol] | 41.4 nM | 2.5 nM | 52.1 nM | 3.3 nM

From patent US20260125375A1 (Pfizer Inc., priority 2022, published 2026)
